Measurements reported in ChEMBL document CHEMBL3272206, “Importance of the aromatic ring in adrenergic amines. 2. Synthesis and adrenergic activity of some nonaromatic six- and eight-membered ring analogs of beta-phenylethanolamine” (J Med Chem, 1976).
Calls of active or inactive are those of the source. No cut-off for these calls is given here.

Key:
Rattus norvegicus [1] = species on record: Rattus norvegicus; test: Adrenergic activity in albino Sprague-Dawley rat vas deferens assessed as contractile response at 0.3 mM measured after 1 to 5 mins; type: functional, tissue-based
Rattus norvegicus [2] = species on record: Rattus norvegicus; test: Adrenergic activity in reserpine-pretreated albino Sprague-Dawley rat vas deferens assessed as contractile response; type: functional, tissue-based
Vas deferens = test: Adrenergic activity in reserpine-pretreated albino Sprague-Dawley rat vas deferens assessed as potentiation of norepinephrine-induced contractile response at 30 uM; type: functional, tissue-based
[3] = substrate: NCC(O)/C1=C/CC/C=C\CC1; test: (§1) Activity at PNMT in bovine adrenal medulla using DL-beta-phenylethanolamine and SAM-14CH3 as substrate by Michaelis-Menten analysis; conditions: Bos taurus
[4] = substrate: NCC(O)C1=C/C=C\C=C/C=C\1; test: as §1; conditions: Bos taurus
[5] = substrate: NCC(O)C1=C/CCCC/C=C\1; test: as §1; conditions: Bos taurus
[6] = substrate: NCC(O)C1CC=CCC1; test: as §1; conditions: Bos taurus
[7] = substrate: NCC(O)C1CCCCC1; test: as §1; conditions: Bos taurus
[8] = substrate: NCC(O)C1CCCCCCC1; test: as §1; conditions: Bos taurus
[9] = substrate: NCC(O)c1ccccc1; test: as §1; conditions: Bos taurus
[10] = substrate: NCC(O)/C1=C/CC/C=C\CC1; test: (§2) Activity at PNMT in bovine adrenal medulla using DL-beta-phenylethanolamine and SAM-14CH3 as substrate measured per mg of protein by Michaelis-Menten analysis; conditions: Bos taurus
[11] = substrate: NCC(O)C1=C/C=C\C=C/C=C\1; test: as §2; conditions: Bos taurus
[12] = substrate: NCC(O)C1=C/CCCC/C=C\1; test: as §2; conditions: Bos taurus
[13] = substrate: NCC(O)C1CC=CCC1; test: as §2; conditions: Bos taurus
[14] = substrate: NCC(O)C1CCCCC1; test: as §2; conditions: Bos taurus
[15] = substrate: NCC(O)C1CCCCCCC1; test: as §2; conditions: Bos taurus
[16] = substrate: NCC(O)c1ccccc1; test: as §2; conditions: Bos taurus

| Molecule | Activity (Rattus norvegicus [1]) | Activity (Rattus norvegicus [2]) | Activity (Vas deferens) | other results |
| --- | --- | --- | --- | --- |
| NCC(O)/C1=C/CC/C=C\CC1 (stereo not given) | Active | inactive |  |  |
| NCC(O)C1CCCCC1 (stereo not given) | Active | inactive | Active |  |
| NCC(O)C1CCCCCCC1 (stereo not given) | Active | inactive | Active |  |
| NCC(O)C1CC=CCC1 (stereo not given) | Active | inactive | Active |  |
| C[C@@H](N)[C@@H](O)c1ccccc1 | Active | inactive | Active |  |
| NCC(O)C1=C/CCCC/C=C\1 (stereo not given) | Active | inactive | Active |  |
| NCC(O)C1/C=C\CCCCC1 (stereo not given) | Active | inactive | Active |  |
| NCC(O)C1=C/C=C\C=C/C=C\1 (stereo not given) | Active | inactive | Active |  |
| NCC(O)c1ccccc1 (stereo not given) | Active | inactive | Active |  |
| Phenylethanolamine N-methyltransferase (Bos taurus), P10938 (protein) MSGTDRSQAAGAVPDSDPGLAAVSSAYQRFEPRAYLRNNYAPPRGDLSCPDGVGPWKLRCLAQTFATGEVSGRTLIDIGSGPTIYQLLSACAHFEDITMTDFLEVNRQELRLWLREEPGAFDWSVYSQHVCLIEGKGESWQEKECQLRARVKRILPIDVHRPQPLGAGGLAPLPADALVSAFCLEAVSPDLASFQRALDHITTLLRPGGHLLLIGALEESWYLAGEARLAVVPVREEEVREALVRTATRCGICARTPMPAHLQTGVDDVKGIFFTRAQKKVGV |  |  |  | Km [3]: 155 µM; Km [4]: 430 µM; Km [5]: 128 µM; Km [6]: 57 µM; Km [7]: 40 µM; Km [8]: 26 µM; Km [9]: 136 µM; Vmax [10]: 2.75 nmol/min; Vmax [11]: 1.73 nmol/min; Vmax [12]: 2.61 nmol/min; Vmax [13]: 1.37 nmol/min; Vmax [14]: 0.99 nmol/min; Vmax [15]: 0.96 nmol/min; Vmax [16]: 2.1 nmol/min |
